# Tests used:
# [1] = system: Phosphatidylinositol 4,5-bisphosphate 3-kinase catalytic subunit alpha isoform (Homo sapiens), P42336 [H1047Y]; conditions: Compound concentration 1000.0 nM
# [2] = target: 5-hydroxytryptamine receptor 2A (Homo sapiens) (UniProt P28223); conditions: Compound concentration 10.0 uM
# [3] = target: Serine/threonine-protein kinase Nek1 (Homo sapiens) (UniProt Q96PY6); conditions: Compound concentration 1000.0 nM
# [4] = target: Ephrin type-A receptor 6 (Homo sapiens) (UniProt Q9UF33); conditions: Compound concentration 1000.0 nM
# [5] = target: Rho-associated protein kinase 2 (Homo sapiens) (UniProt O75116); conditions: Compound concentration 1000.0 nM
# [6] = target: Cyclin-dependent kinase 4 (Homo sapiens) (UniProt P11802); conditions: Compound concentration 1000.0 nM
# [7] = target: Dual specificity protein kinase CLK1 (Homo sapiens) (UniProt P49759); conditions: Compound concentration 1000.0 nM
# [8] = target: Tyrosine-protein kinase CSK (Homo sapiens) (UniProt P41240); conditions: Compound concentration 1000.0 nM
# [9] = target: Mitogen-activated protein kinase kinase kinase 20 (Homo sapiens) (UniProt Q9NYL2); conditions: Compound concentration 1000.0 nM
# [10] = target: Cyclin-dependent kinase 13 (Homo sapiens) (UniProt Q14004); conditions: Compound concentration 1000.0 nM
# [11] = target: Serine/threonine-protein kinase 3 (Homo sapiens) (UniProt Q13188); conditions: Compound concentration 1000.0 nM
# [12] = target: 5-hydroxytryptamine receptor 1E (Homo sapiens) (UniProt P28566); conditions: Compound concentration 10.0 uM
# [13] = target: 5-hydroxytryptamine receptor 2B (Homo sapiens) (UniProt P41595); conditions: Compound concentration 10.0 uM
# [14] = target: Ribosomal protein S6 kinase alpha-2 (Homo sapiens) (UniProt Q15349); conditions: Compound concentration 1000.0 nM
# [15] = target: Interleukin-1 receptor-associated kinase 4 (Homo sapiens) (UniProt Q9NWZ3); conditions: Compound concentration 1000.0 nM
# [16] = target: Phosphatidylinositol 4,5-bisphosphate 3-kinase catalytic subunit delta isoform (Homo sapiens) (UniProt O00329); conditions: Compound concentration 1000.0 nM
# [17] = system: Receptor-type tyrosine-protein kinase FLT3 (Homo sapiens), P36888 [D835V]; conditions: Compound concentration 1000.0 nM
# [18] = target: Serine/threonine-protein kinase BRSK2 (Homo sapiens) (UniProt Q8IWQ3); conditions: Compound concentration 1000.0 nM
# [19] = target: Microtubule-associated serine/threonine-protein kinase 1 (Homo sapiens) (UniProt Q9Y2H9); conditions: Compound concentration 1000.0 nM
# [20] = target: Serine/threonine-protein kinase pim-1 (Homo sapiens) (UniProt P11309); conditions: Compound concentration 1000.0 nM
# [21] = target: Uncharacterized serine/threonine-protein kinase SBK3 (Homo sapiens) (UniProt P0C264); conditions: Compound concentration 1000.0 nM
# [22] = target: Myosin light chain kinase 2, skeletal/cardiac muscle (Homo sapiens) (UniProt Q9H1R3); conditions: Compound concentration 1000.0 nM
# [23] = target: Serine/threonine-protein kinase Nek11 (Homo sapiens) (UniProt Q8NG66); conditions: Compound concentration 1000.0 nM
# [24] = target: Dual specificity protein kinase CLK3 (Homo sapiens) (UniProt P49761); conditions: Compound concentration 1000.0 nM
# [25] = target: Serine/threonine-protein kinase 32C (Homo sapiens) (UniProt Q86UX6); conditions: Compound concentration 1000.0 nM
# [26] = target: Protein kinase C eta type (Homo sapiens) (UniProt P24723); conditions: Compound concentration 1000.0 nM
# [27] = target: Mitogen-activated protein kinase kinase kinase kinase 3 (Homo sapiens) (UniProt Q8IVH8); conditions: Compound concentration 1000.0 nM
# [28] = target: Serine/threonine-protein kinase pim-3 (Homo sapiens) (UniProt Q86V86); conditions: Compound concentration 1000.0 nM
# [29] = target: Serine/threonine-protein kinase LATS1 (Homo sapiens) (UniProt O95835); conditions: Compound concentration 1000.0 nM
# [30] = target: Myotonin-protein kinase (Homo sapiens) (UniProt Q09013); conditions: Compound concentration 1000.0 nM
# [31] = target: Serine/threonine-protein kinase MARK2 (Homo sapiens) (UniProt Q7KZI7); conditions: Compound concentration 1000.0 nM
# [32] = target: Calcium/calmodulin-dependent protein kinase type II subunit gamma (Homo sapiens) (UniProt Q13555); conditions: Compound concentration 1000.0 nM
# [33] = target: Vascular endothelial growth factor receptor 3 (Homo sapiens) (UniProt P35916); conditions: Compound concentration 1000.0 nM
# [34] = system: Phosphatidylinositol 4,5-bisphosphate 3-kinase catalytic subunit alpha isoform (Homo sapiens), P42336 [C420R]; conditions: Compound concentration 1000.0 nM
# [35] = target: Serine/threonine-protein kinase 36 (Homo sapiens) (UniProt Q9NRP7); conditions: Compound concentration 1000.0 nM
# [36] = target: D(1A) dopamine receptor (Homo sapiens) (UniProt P21728); conditions: Compound concentration 10.0 uM
# [37] = target: Platelet-derived growth factor receptor alpha (Homo sapiens) (UniProt P16234); conditions: Compound concentration 1000.0 nM
# [38] = target: Serine/threonine-protein kinase/endoribonuclease IRE1 (Homo sapiens) (UniProt O75460); conditions: Compound concentration 1000.0 nM
# [39] = target: Dual specificity mitogen-activated protein kinase kinase 3 (Homo sapiens) (UniProt P46734); conditions: Compound concentration 1000.0 nM
# [40] = target: cGMP-dependent protein kinase 2 (Homo sapiens) (UniProt Q13237); conditions: Compound concentration 1000.0 nM
# [41] = target: Myosin light chain kinase family member 4 (Homo sapiens) (UniProt Q86YV6); conditions: Compound concentration 1000.0 nM
# [42] = target: Serine/threonine-protein kinase NIM1 (Homo sapiens) (UniProt Q8IY84); conditions: Compound concentration 1000.0 nM
# [43] = target: Mast/stem cell growth factor receptor Kit (Homo sapiens) (UniProt P10721); conditions: Compound concentration 1000.0 nM
# [44] = target: Calcium/calmodulin-dependent protein kinase type II subunit beta (Homo sapiens) (UniProt Q13554); conditions: Compound concentration 1000.0 nM
# [45] = target: Serine/threonine-protein kinase tousled-like 1 (Homo sapiens) (UniProt Q9UKI8); conditions: Compound concentration 1000.0 nM
# Sequence of Dual specificity protein kinase CLK3 (Homo sapiens) (P49761 whole entry, looked up): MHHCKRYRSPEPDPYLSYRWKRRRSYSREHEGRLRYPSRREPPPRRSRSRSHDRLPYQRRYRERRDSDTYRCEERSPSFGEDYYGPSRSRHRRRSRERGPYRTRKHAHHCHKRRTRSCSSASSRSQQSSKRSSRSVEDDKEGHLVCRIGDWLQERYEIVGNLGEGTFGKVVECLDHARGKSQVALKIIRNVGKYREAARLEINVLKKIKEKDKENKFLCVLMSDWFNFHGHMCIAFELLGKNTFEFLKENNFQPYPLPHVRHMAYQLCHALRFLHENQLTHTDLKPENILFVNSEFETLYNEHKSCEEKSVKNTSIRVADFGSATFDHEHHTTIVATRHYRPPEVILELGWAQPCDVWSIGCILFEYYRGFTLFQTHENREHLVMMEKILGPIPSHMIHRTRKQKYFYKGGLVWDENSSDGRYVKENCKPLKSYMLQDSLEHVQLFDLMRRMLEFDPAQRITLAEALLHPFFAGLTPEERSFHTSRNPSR
# Sequence of Platelet-derived growth factor receptor alpha (Homo sapiens) (P16234 whole entry): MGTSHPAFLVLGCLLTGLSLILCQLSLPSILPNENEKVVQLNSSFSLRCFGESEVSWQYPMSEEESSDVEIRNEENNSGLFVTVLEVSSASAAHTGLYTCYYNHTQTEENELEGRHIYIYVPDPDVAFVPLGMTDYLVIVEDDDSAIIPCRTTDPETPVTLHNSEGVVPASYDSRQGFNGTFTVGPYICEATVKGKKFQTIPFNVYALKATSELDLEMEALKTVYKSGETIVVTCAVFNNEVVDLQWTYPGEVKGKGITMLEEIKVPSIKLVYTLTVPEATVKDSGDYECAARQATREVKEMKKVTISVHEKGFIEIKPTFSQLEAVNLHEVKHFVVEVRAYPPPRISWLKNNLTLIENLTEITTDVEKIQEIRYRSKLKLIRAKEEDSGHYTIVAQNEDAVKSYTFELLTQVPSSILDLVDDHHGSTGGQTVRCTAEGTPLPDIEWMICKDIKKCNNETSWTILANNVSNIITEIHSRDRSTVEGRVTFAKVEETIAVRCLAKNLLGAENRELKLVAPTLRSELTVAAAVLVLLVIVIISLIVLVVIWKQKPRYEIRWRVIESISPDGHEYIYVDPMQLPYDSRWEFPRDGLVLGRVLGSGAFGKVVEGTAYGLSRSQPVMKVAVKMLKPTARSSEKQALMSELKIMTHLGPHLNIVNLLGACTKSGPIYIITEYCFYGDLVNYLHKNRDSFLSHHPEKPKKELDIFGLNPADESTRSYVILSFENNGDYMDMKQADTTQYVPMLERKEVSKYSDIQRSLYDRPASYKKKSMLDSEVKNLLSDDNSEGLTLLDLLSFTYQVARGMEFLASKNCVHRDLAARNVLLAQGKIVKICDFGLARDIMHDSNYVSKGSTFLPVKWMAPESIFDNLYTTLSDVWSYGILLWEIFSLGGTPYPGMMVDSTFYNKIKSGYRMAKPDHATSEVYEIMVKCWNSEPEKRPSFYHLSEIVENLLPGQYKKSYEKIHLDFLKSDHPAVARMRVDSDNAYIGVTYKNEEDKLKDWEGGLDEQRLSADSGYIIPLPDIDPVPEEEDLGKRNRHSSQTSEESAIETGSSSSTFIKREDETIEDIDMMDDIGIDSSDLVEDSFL
# Sequence of Phosphatidylinositol 4,5-bisphosphate 3-kinase catalytic subunit alpha isoform (Homo sapiens), P42336 [H1047Y] (P42336 whole entry H1047Y, canonical isoform): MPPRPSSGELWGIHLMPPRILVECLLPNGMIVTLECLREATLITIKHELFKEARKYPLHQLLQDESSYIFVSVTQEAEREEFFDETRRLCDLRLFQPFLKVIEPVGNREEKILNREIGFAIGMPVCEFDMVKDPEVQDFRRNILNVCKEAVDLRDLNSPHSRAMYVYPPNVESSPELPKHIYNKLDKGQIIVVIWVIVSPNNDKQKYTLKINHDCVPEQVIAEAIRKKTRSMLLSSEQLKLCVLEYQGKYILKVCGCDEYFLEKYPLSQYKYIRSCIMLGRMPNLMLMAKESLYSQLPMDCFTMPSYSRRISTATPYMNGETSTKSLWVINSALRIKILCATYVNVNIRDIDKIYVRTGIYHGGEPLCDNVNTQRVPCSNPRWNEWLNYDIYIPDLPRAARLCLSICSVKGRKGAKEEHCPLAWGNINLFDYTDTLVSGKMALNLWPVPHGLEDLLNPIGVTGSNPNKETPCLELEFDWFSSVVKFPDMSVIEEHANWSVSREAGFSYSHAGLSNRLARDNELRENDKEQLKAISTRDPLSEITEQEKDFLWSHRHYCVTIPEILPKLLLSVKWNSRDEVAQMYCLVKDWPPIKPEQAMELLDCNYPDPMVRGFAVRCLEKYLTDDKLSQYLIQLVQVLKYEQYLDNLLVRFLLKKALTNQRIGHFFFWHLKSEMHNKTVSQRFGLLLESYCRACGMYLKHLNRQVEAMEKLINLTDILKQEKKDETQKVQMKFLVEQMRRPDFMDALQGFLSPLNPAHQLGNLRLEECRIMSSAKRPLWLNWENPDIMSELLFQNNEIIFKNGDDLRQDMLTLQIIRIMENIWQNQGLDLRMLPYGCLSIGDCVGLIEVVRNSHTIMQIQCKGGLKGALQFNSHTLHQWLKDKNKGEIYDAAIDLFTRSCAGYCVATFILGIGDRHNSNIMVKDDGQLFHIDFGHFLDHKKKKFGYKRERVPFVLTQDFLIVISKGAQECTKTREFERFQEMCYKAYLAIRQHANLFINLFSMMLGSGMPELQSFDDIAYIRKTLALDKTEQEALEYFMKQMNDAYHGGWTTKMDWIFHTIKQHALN
# Sequence of Serine/threonine-protein kinase MARK2 (Homo sapiens) (Q7KZI7 whole entry): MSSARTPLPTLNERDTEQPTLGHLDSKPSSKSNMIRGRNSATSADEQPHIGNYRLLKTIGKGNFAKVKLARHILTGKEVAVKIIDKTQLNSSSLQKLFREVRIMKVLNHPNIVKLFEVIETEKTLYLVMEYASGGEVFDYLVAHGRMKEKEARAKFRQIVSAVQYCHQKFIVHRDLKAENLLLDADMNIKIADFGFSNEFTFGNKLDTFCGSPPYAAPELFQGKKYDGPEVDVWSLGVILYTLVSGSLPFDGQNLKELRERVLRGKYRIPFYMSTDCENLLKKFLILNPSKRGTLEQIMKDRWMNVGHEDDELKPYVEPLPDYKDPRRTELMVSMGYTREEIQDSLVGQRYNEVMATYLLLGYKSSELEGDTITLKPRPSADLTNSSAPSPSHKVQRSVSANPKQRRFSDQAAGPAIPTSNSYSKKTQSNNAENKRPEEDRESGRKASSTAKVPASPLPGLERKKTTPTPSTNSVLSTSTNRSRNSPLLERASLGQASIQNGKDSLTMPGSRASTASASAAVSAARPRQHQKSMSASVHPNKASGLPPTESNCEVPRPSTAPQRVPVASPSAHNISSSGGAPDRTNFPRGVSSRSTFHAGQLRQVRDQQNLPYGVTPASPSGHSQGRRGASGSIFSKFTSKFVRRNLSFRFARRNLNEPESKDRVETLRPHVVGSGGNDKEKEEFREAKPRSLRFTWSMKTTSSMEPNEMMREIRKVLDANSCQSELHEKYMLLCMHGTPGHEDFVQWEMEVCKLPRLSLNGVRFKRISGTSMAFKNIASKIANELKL
# Sequence of Tyrosine-protein kinase CSK (Homo sapiens) (P41240 2-450 limits assumed): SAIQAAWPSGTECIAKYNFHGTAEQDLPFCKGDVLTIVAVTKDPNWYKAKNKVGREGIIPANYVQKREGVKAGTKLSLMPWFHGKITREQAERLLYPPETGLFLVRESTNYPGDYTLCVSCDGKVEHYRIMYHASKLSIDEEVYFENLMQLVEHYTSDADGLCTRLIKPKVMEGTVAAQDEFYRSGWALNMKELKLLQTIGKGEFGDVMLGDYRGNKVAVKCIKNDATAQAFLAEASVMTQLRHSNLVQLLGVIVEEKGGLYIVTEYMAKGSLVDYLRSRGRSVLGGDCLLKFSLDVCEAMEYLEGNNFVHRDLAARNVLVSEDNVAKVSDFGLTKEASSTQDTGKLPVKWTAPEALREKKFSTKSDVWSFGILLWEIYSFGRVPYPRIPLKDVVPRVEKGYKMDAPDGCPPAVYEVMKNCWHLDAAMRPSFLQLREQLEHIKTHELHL
# Sequence of Protein kinase C eta type (Homo sapiens) (P24723 whole entry): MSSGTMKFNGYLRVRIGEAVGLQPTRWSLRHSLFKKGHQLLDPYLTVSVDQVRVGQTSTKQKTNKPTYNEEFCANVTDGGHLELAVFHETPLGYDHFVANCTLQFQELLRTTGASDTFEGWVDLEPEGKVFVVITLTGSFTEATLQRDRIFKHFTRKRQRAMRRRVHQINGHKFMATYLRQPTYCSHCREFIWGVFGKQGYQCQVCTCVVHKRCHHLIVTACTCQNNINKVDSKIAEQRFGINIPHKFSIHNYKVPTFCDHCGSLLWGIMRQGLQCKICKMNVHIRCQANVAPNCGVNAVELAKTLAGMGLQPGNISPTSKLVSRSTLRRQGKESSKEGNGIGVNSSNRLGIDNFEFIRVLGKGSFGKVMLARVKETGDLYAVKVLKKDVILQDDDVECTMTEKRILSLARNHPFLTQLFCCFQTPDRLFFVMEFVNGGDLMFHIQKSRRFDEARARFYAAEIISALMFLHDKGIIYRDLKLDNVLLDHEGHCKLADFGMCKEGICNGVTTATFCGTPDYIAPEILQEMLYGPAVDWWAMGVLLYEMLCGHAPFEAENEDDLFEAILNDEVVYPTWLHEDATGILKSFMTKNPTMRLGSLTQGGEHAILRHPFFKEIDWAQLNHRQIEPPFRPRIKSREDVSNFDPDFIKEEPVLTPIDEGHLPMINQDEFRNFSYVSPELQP
smiles,measurement,setting,value
Cc1nc(Cc2cccc(C(F)(F)F)c2)sc1-c1ccc(C(N)=O)nc1 [TP-024n],residual activity,[1],100%
same,inhibition,[2],20.4%
same,residual activity,[3],41%
same,residual activity,[4],96%
same,residual activity,[5],59%
same,residual activity,[6],90%
same,residual activity,[7],83%
same,residual activity,[8],88%
same,residual activity,[9],73%
same,residual activity,[10],100%
same,residual activity,[11],97%
same,inhibition,[12],9.13%
same,inhibition,[13],33.7%
same,residual activity,[14],100%
same,residual activity,[15],100%
same,residual activity,[16],100%
same,residual activity,[17],100%
same,residual activity,[18],72%
same,residual activity,[19],100%
same,residual activity,[20],96%
same,residual activity,[21],100%
same,residual activity,[22],77%
same,residual activity,[23],100%
same,residual activity,[24],85%
same,residual activity,[25],87%
same,residual activity,[26],83%
same,residual activity,[27],76%
same,residual activity,[28],100%
same,residual activity,[29],100%
same,residual activity,[30],100%
same,residual activity,[31],69%
same,residual activity,[32],93%
same,residual activity,[33],100%
same,residual activity,[34],89%
same,residual activity,[35],100%
same,inhibition,[36],-6.03%
same,residual activity,[37],88%
same,residual activity,[38],100%
same,residual activity,[39],93%
same,residual activity,[40],84%
same,residual activity,[41],91%
same,residual activity,[42],100%
same,residual activity,[43],100%
same,residual activity,[44],100%
same,residual activity,[45],100%
Cc1cc(-n2nc(Cc3cc(F)cc(C(F)(F)F)c3)nc2C)ccc1C(N)=O [TP-024],residual activity,[1],78%
same,inhibition,[2],10.5%
same,residual activity,[3],54%
same,residual activity,[4],100%
same,residual activity,[5],96%
same,residual activity,[6],100%
same,residual activity,[7],86%
same,residual activity,[8],97%
same,residual activity,[9],99%
same,residual activity,[10],100%
same,residual activity,[11],100%
same,inhibition,[12],10.5%
same,inhibition,[13],-2.51%
same,residual activity,[14],100%
same,residual activity,[15],100%
same,residual activity,[16],52%
same,residual activity,[17],100%
same,residual activity,[18],77%
same,residual activity,[19],100%
same,residual activity,[20],100%
same,residual activity,[21],91%
same,residual activity,[22],91%
same,residual activity,[23],100%
same,residual activity,[24],94%
same,residual activity,[25],100%
same,residual activity,[26],97%
same,residual activity,[27],69%
same,residual activity,[28],100%
same,residual activity,[29],100%
same,residual activity,[30],100%
same,residual activity,[31],89%
same,residual activity,[32],100%
same,residual activity,[33],97%
same,residual activity,[34],93%
same,residual activity,[35],100%
same,inhibition,[36],-4.72%
same,residual activity,[37],100%
same,residual activity,[38],100%
same,residual activity,[39],100%
same,residual activity,[40],86%
same,residual activity,[41],100%
same,residual activity,[42],100%
same,residual activity,[43],100%
same,residual activity,[44],100%
same,residual activity,[45],93%
